Source: patent US8785655B2, “Ionic liquid solvents” (Dublin City University, priority 2009, dated 2014)

Key:
Absidia corymbifera 272 = test: In vitro antifungal activity, MIC by microdilution (NCCLS M27-A); details: AC
Description: (§1) In vitro antifungal activities of the compounds were evaluated on the collection of fungal strains deposited at the Department of Biological and Medical Sciences, Faculty of Pharmacy, Charles University, Czech Republic. All the isolates were maintained on Sabouraud dextrose agar prior to being tested.
(§2) Minimum inhibitory concentrations (MICs) were determined by the microdilution format of the NCCLS M27-A guidelines. […] RPMI 1640 (Sevapharma, Prague) medium supplemented with L-glutamine and buffered with 0.165 M morpholinepropanesulfonic acid to pH 7.0 was used as the test medium. The wells of the microdilution tray contained 100 μl of the RPMI 1640 medium with 2-fold serial dilutions of the compounds (1000 to 0.24 μmol/l for the new compounds) and 100 μl of inoculum suspension. Fungal inoculum in RPMI 1640 was prepared to give a final concentration of 5×103±0.2 cfu·ml-1. The trays were incubated at 35° C. and MICs were read visually for filamentous fungi and photometrically for yeasts as an optical density (OD) at 540 nm after 24 h and 48 h. The MICs were defined as 80% inhibition of the growth of control. MICs were determined twice and in duplicate. The deviations from the usually obtained were no higher than the nearest concentration value up and down the dilution scale.

Candida krusei E28 = test: as above
Candida krusei ATCC 6258 = test: as above
fungi and bacteria = type: cell-based
Description: All the 12 bromide salts and 12 octylsulfate CILs in the table below were screened against fungi and bacteria.
CILs with bromide as anion have been screened against the following Fungi and bacteria:
. […] MICs were determined twice and in duplicate.

[1] = test system: Staphylococcus aureus CCM 4516/08; test: Screen against bacteria, MIC/IC80; type: cell-based; details: SA
[2] = test system: Klebsiella pneumoniae D 11750/08; test: Screen against bacteria, MIC/IC80; type: cell-based; details: KP
[3] = test system: Klebsiella pneumoniae J 14368/08 ESBL-positive; test: Screen against bacteria, MIC/IC80; type: cell-based; details: KP-E
Escherichia coli CCM4517 = test: Screen against bacteria, MIC/IC80; type: cell-based; details: EC
[4] = test system: Staphylococcus epidermidis H 6966/08; test: Screen against bacteria, MIC/IC80; type: cell-based; details: SE
[5] = test system: Pseudomonas aeruginosa CCM 1961; test: Screen against bacteria, MIC/IC80; type: cell-based; details: PA
[6] = test system: Enterococcus sp. J 14365/08; test: Screen against bacteria, MIC/IC80; type: cell-based; details: EF
[7] = test system: Candida albicans ATCC 90028; test: In vitro antifungal activity, MIC by microdilution (NCCLS M27-A)
Candida tropicalis 156 = test: as above; details: CT
Description: as §1, §2

[8] = test system: Aspergillus fumigatus 231; test: as above; details: AF
Description: as §1, §2

[9] = test system: Candida lusitaniae 2446/l; test: as above; details: CL
Description: as §1, §2

[10] = test system: Staphylococcus aureus H 5996/08 Methiciline-resistant; test: Screen against bacteria, MIC/IC80; type: cell-based; details: MRSA
[11] = test system: Candida albicans ATCC 44859; test: In vitro antifungal activity, MIC by microdilution (NCCLS M27-A)
Description: as §1, §2

Candida glabrata 20/l = test: as above; details: CG
Description: as §1, §2

[12] = test system: Trichophyton mentagrophytes 445; test: as above; details: TM
[13] = test system: Candida parapsilosis ATCC 22019; test: as above; details: CP

CCCCCCCCOS(=O)(=O)[O-].CCCCCOC(=O)[C@@H](OC(=O)Cn1cc[n+](C)c1)c1ccccc1 [KG302, S-3-methyl-1-[1-(pentoxycarbonyl)-1-phenylmethoxycarbonylmethyl]imidazolium octyl sulphate]
MIC/IC80 (Absidia corymbifera 272; 24 h): 1000 µM | MIC/IC80 (Absidia corymbifera 272; 48 h): >1000 µM | MIC/IC80 (Candida krusei E28; CK2, 24 h): >1000 µM | MIC/IC80 (Candida krusei E28; CK2, 48 h): >1000 µM | MIC/IC80 (Candida krusei ATCC 6258; CK1, 24 h): >1000 µM | MIC/IC80 (Candida krusei ATCC 6258; CK1, 48 h): >1000 µM | toxicity / inhibition of the growth of fungi and bacteria (fungi and bacteria): inhibit the growth of fungi and bacteria | MIC/IC80 ([1]; 24 h): >1000 µM | MIC/IC80 ([1]; 48 h): >1000 µM | MIC/IC80 ([2]; 24 h): >1000 µM | MIC/IC80 ([2]; 48 h): >1000 µM | MIC/IC80 ([3]; 24 h): >1000 µM | MIC/IC80 ([3]; 48 h): >1000 µM | MIC/IC80 (Escherichia coli CCM4517; 24 h): >1000 µM | MIC/IC80 (Escherichia coli CCM4517; 48 h): >1000 µM | MIC/IC80 ([4]; 24 h): 1000 µM | MIC/IC80 ([4]; 48 h): >1000 µM | MIC/IC80 ([5]; 24 h): >1000 µM | MIC/IC80 ([5]; 48 h): >1000 µM | MIC/IC80 ([6]; 24 h): >1000 µM | MIC/IC80 ([6]; 48 h): >1000 µM | MIC/IC80 ([7]; CA2, 24 h): >1000 µM | MIC/IC80 ([7]; CA2, 48 h): >1000 µM | MIC/IC80 (Candida tropicalis 156; 24 h): >1000 µM | MIC/IC80 (Candida tropicalis 156; 48 h): >1000 µM | MIC/IC80 ([8]; 24 h): 1000 µM | MIC/IC80 ([8]; 48 h): >1000 µM | MIC/IC80 ([9]; 24 h): >1000 µM | MIC/IC80 ([9]; 48 h): >1000 µM | MIC/IC80 ([10]; 24 h): >1000 µM | MIC/IC80 ([10]; 48 h): >1000 µM | MIC/IC80 ([11]; CA1, 24 h): 1000 µM | MIC/IC80 ([11]; CA1, 48 h): 1000 µM | MIC/IC80 (Candida glabrata 20/l; 24 h): >1000 µM | MIC/IC80 (Candida glabrata 20/l; 48 h): >1000 µM | MIC/IC80 ([12]; 72 h): 250 µM | MIC/IC80 ([12]; 120 h): 500 µM | MIC/IC80 ([13]; 24 h): >1000 µM | MIC/IC80 ([13]; 48 h): >1000 µM

R-3-methyl-1-[1-(pentoxycarbonyl)-1-phenylmethoxycarbonylmethyl]imidazolium octyl sulphate [KG303]
MIC/IC80 (Absidia corymbifera 272; 24 h): 1000 µM | MIC/IC80 (Absidia corymbifera 272; 48 h): 1000 µM | MIC/IC80 (Candida krusei E28; CK2, 24 h): 1000 µM | MIC/IC80 (Candida krusei E28; CK2, 48 h): >1000 µM | MIC/IC80 (Candida krusei ATCC 6258; CK1, 24 h): 1000 µM | MIC/IC80 (Candida krusei ATCC 6258; CK1, 48 h): >1000 µM | toxicity / inhibition of the growth of fungi and bacteria (fungi and bacteria): inhibit the growth of fungi and bacteria | MIC/IC80 ([1]; 24 h): 1000 µM | MIC/IC80 ([1]; 48 h): 1000 µM | MIC/IC80 ([2]; 24 h): >1000 µM | MIC/IC80 ([2]; 48 h): >1000 µM | MIC/IC80 ([3]; 24 h): >1000 µM | MIC/IC80 ([3]; 48 h): >1000 µM | MIC/IC80 (Escherichia coli CCM4517; 24 h): >1000 µM | MIC/IC80 (Escherichia coli CCM4517; 48 h): >1000 µM | MIC/IC80 ([4]; 24 h): 500 µM | MIC/IC80 ([4]; 48 h): 1000 µM | MIC/IC80 ([5]; 24 h): >1000 µM | MIC/IC80 ([5]; 48 h): >1000 µM | MIC/IC80 ([6]; 24 h): >1000 µM | MIC/IC80 ([6]; 48 h): >1000 µM | MIC/IC80 ([7]; CA2, 24 h): 1000 µM | MIC/IC80 ([7]; CA2, 48 h): >1000 µM | MIC/IC80 (Candida tropicalis 156; 24 h): >1000 µM | MIC/IC80 (Candida tropicalis 156; 48 h): >1000 µM | MIC/IC80 ([8]; 24 h): 1000 µM | MIC/IC80 ([8]; 48 h): 1000 µM | MIC/IC80 ([9]; 24 h): >1000 µM | MIC/IC80 ([9]; 48 h): >1000 µM | MIC/IC80 ([10]; 24 h): 1000 µM | MIC/IC80 ([10]; 48 h): >1000 µM | MIC/IC80 ([11]; CA1, 24 h): 500 µM | MIC/IC80 ([11]; CA1, 48 h): >1000 µM | MIC/IC80 (Candida glabrata 20/l; 24 h): >1000 µM | MIC/IC80 (Candida glabrata 20/l; 48 h): >1000 µM | MIC/IC80 ([12]; 72 h): 250 µM | MIC/IC80 ([12]; 120 h): 500 µM | MIC/IC80 ([13]; 24 h): >1000 µM | MIC/IC80 ([13]; 48 h): >1000 µM

CCOCCOC(=O)[C@H](OC(=O)C[n+]1ccn(C)c1)c1ccccc1 [KG835, R-3-methyl-1-[1-(ethoxyethoxycarbonyl)-1-phenylmethoxycarbonylmethyl]imidazolium bromide]
MIC/IC80 (Absidia corymbifera 272; 24 h): >1000 µM | MIC/IC80 (Absidia corymbifera 272; 48 h): >1000 µM | MIC/IC80 (Candida krusei E28; CK2, 24 h): >1000 µM | MIC/IC80 (Candida krusei E28; CK2, 48 h): >1000 µM | MIC/IC80 (Candida krusei ATCC 6258; CK1, 24 h): >1000 µM | MIC/IC80 (Candida krusei ATCC 6258; CK1, 48 h): >1000 µM | MIC/IC80 ([1]; 24 h): >1000 µM | MIC/IC80 ([1]; 48 h): >1000 µM | MIC/IC80 ([2]; 24 h): >1000 µM | MIC/IC80 ([2]; 48 h): >1000 µM | MIC/IC80 ([3]; 24 h): >1000 µM | MIC/IC80 ([3]; 48 h): >1000 µM | MIC/IC80 (Escherichia coli CCM4517; 24 h): >1000 µM | MIC/IC80 (Escherichia coli CCM4517; 48 h): >1000 µM | MIC/IC80 ([4]; 24 h): >1000 µM | MIC/IC80 ([4]; 48 h): >1000 µM | MIC/IC80 ([5]; 24 h): >1000 µM | MIC/IC80 ([5]; 48 h): >1000 µM | MIC/IC80 ([6]; 24 h): >1000 µM | MIC/IC80 ([6]; 48 h): >1000 µM | MIC/IC80 ([7]; CA2, 24 h): >1000 µM | MIC/IC80 ([7]; CA2, 48 h): >1000 µM | MIC/IC80 (Candida tropicalis 156; 24 h): >1000 µM | MIC/IC80 (Candida tropicalis 156; 48 h): >1000 µM | MIC/IC80 ([8]; 24 h): >1000 µM | MIC/IC80 ([8]; 48 h): >1000 µM | MIC/IC80 ([9]; 24 h): >1000 µM | MIC/IC80 ([9]; 48 h): >1000 µM | MIC/IC80 ([10]; 24 h): >1000 µM | MIC/IC80 ([10]; 48 h): >1000 µM | MIC/IC80 ([11]; CA1, 24 h): >1000 µM | MIC/IC80 ([11]; CA1, 48 h): >1000 µM | MIC/IC80 (Candida glabrata 20/l; 24 h): >1000 µM | MIC/IC80 (Candida glabrata 20/l; 48 h): >1000 µM | MIC/IC80 ([12]; 72 h): >1000 µM | MIC/IC80 ([12]; 120 h): >1000 µM | MIC/IC80 ([13]; 24 h): >1000 µM | MIC/IC80 ([13]; 48 h): >1000 µM

COC(=O)[C@@H](OC(=O)C[n+]1ccn(C)c1)c1ccccc1 [KG91, S-3-methyl-1-[1-(methoxycarbonyl)-1-phenylmethoxycarbonylmethyl]imidazolium bromide]
MIC/IC80 (Absidia corymbifera 272; 24 h): >1000 µM | MIC/IC80 (Absidia corymbifera 272; 48 h): >1000 µM | MIC/IC80 (Candida krusei E28; CK2, 24 h): >1000 µM | MIC/IC80 (Candida krusei E28; CK2, 48 h): >1000 µM | MIC/IC80 (Candida krusei ATCC 6258; CK1, 24 h): >1000 µM | MIC/IC80 (Candida krusei ATCC 6258; CK1, 48 h): >1000 µM | MIC/IC80 ([1]; 24 h): >1000 µM | MIC/IC80 ([1]; 48 h): >1000 µM | MIC/IC80 ([2]; 24 h): >1000 µM | MIC/IC80 ([2]; 48 h): >1000 µM | MIC/IC80 ([3]; 24 h): >1000 µM | MIC/IC80 ([3]; 48 h): >1000 µM | MIC/IC80 (Escherichia coli CCM4517; 24 h): >1000 µM | MIC/IC80 (Escherichia coli CCM4517; 48 h): >1000 µM | MIC/IC80 ([4]; 24 h): >1000 µM | MIC/IC80 ([4]; 48 h): >1000 µM | MIC/IC80 ([5]; 24 h): >1000 µM | MIC/IC80 ([5]; 48 h): >1000 µM | MIC/IC80 ([6]; 24 h): >1000 µM | MIC/IC80 ([6]; 48 h): >1000 µM | MIC/IC80 ([7]; CA2, 24 h): >1000 µM | MIC/IC80 ([7]; CA2, 48 h): >1000 µM | MIC/IC80 (Candida tropicalis 156; 24 h): >1000 µM | MIC/IC80 (Candida tropicalis 156; 48 h): >1000 µM | MIC/IC80 ([8]; 24 h): >1000 µM | MIC/IC80 ([8]; 48 h): >1000 µM | MIC/IC80 ([9]; 24 h): >1000 µM | MIC/IC80 ([9]; 48 h): >1000 µM | MIC/IC80 ([10]; 24 h): >1000 µM | MIC/IC80 ([10]; 48 h): >1000 µM | MIC/IC80 ([11]; CA1, 24 h): >1000 µM | MIC/IC80 ([11]; CA1, 48 h): >1000 µM | MIC/IC80 (Candida glabrata 20/l; 24 h): >1000 µM | MIC/IC80 (Candida glabrata 20/l; 48 h): >1000 µM | MIC/IC80 ([12]; 72 h): >1000 µM | MIC/IC80 ([12]; 120 h): >1000 µM | MIC/IC80 ([13]; 24 h): >1000 µM | MIC/IC80 ([13]; 48 h): >1000 µM
